This is an account of results in paper PMC3691235, “Discovery of a Novel Dual Fungal CYP51/Human 5-Lipoxygenase Inhibitor: Implications for Anti-Fungal Therapy” (PLoS ONE, 2013).

Like-named read-outs stand apart in the source and are kept apart here.

What all share (type): biochemical
The target in assay [1] is T1, Human leukocyte 5-lipoxygenase (Homo sapiens, UniProt P09917).
T1 construct: made in house
T1 sequence (P09917 1-674): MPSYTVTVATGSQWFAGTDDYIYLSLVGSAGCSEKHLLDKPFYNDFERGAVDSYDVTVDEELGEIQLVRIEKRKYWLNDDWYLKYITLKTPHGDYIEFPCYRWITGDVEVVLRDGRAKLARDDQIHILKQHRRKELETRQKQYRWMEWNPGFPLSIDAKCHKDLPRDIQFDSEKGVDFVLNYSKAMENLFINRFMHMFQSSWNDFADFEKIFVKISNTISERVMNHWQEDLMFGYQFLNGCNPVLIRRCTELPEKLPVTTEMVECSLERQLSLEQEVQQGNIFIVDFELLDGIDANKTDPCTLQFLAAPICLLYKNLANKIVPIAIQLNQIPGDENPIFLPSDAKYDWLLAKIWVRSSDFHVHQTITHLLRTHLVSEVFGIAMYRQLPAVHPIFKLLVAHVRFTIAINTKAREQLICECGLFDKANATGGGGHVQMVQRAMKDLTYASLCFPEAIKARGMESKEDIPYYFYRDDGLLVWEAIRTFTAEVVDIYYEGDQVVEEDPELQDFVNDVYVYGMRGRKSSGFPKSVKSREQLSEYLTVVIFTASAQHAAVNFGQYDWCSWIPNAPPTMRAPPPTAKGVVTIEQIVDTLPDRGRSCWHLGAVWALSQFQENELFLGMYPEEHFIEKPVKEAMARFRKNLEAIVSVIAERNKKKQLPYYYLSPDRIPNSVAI
Description: Lipoxygenase UV-based inhibitor assay, 5-LOX. As to the method:
(§1) Human leukocyte 5-lipoxygenase was expressed as a non-tagged protein and used as a crude ammonium sulfate protein fraction, as published previously.
(§2) Inhibitor potencies were evaluated through use of the standard UV-based inhibitor assay. The initial rates were determined by following the formation of the conjugated diene product at 234 nm (ε = 25,000 M^−1 cm^−1) with a Perkin-Elmer Lambda 40 UV/Vis spectrophotometer at one substrate concentration and varying inhibitor concentrations. All reactions were 2 mL in volume and constantly stirred using a magnetic stir bar at room temperature (23°C), with the enzyme specific buffer conditions outlined in Table 1. The substrate used for the various isozymes was arachidonic acid (AA) for 5-LOX, 12-LOX, and 15-LOX-2 and linoleic acid (LA) for 15-LOX-1, where concentrations were quantitatively determined by allowing the enzymatic reaction to go to completion. IC50 values were obtained by determining the initial rate at various inhibitor concentrations and plotting them against inhibitor concentration, followed by a hyperbolic saturation curve fit. The data used for the saturation curves were performed in duplicate or triplicate, depending on the quality of the data. […] Inhibitors were stored at −20°C in DMSO. […] The solvent isotope effect of the inhibitor IC50 was investigated utilizing the same conditions and methods as stated above. The pH of the buffered D2O was determined as reported previously.

Assay [2] addresses T2, human prostate epithelial 15-lipoxygenase-2 (15-LOX-2) (Homo sapiens, UniProt O15296).
T2 construct: His6 (N); made in house
T2 sequence (O15296 1-676): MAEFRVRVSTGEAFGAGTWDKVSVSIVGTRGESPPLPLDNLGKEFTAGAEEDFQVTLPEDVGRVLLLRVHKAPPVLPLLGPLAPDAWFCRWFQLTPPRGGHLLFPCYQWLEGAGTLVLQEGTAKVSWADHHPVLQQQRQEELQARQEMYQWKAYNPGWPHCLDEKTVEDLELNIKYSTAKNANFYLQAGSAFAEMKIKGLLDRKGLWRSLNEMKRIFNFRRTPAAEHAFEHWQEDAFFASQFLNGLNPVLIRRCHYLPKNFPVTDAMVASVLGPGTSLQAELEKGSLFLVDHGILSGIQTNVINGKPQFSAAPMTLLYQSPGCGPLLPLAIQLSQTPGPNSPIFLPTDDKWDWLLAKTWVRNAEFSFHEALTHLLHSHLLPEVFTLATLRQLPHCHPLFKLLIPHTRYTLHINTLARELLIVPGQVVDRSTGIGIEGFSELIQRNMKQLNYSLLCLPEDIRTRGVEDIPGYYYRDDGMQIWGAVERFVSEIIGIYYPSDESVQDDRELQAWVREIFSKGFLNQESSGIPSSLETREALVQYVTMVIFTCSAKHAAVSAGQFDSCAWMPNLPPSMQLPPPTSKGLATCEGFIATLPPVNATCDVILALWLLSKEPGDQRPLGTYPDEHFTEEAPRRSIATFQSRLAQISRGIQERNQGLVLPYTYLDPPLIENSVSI
In words: Lipoxygenase UV-based inhibitor assay, 15-LOX-2. The note with it: 30 µM AA, pH 7.5. The protocol: as §1, §2

Assay [3] deals with T3, Ovine COX-1 (Ovis aries, UniProt P05979).
T3 construct: purchased Cayman chemical 60100
T3 sequence (P05979 25-600): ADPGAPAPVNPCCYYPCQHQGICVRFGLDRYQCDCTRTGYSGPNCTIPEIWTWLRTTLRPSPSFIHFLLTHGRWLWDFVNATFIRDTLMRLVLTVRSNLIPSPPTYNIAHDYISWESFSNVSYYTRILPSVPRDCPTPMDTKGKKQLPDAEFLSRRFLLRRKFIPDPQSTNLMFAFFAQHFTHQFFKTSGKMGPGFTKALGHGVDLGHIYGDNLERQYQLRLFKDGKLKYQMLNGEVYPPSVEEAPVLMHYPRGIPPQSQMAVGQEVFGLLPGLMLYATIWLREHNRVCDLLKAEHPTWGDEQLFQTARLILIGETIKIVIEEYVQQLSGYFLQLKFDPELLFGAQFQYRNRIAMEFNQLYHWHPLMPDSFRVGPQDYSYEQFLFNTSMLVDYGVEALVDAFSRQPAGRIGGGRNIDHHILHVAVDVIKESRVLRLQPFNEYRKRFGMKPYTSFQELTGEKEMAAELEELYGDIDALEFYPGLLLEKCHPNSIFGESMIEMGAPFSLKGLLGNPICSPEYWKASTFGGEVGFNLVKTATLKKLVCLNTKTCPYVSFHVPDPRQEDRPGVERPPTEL
Description: Cyclooxygenase assay (oxygen electrode), COX-1. As to the method: Ovine COX-1 (Cat. No. 60100) and human COX-2 (Cat. No. 60122) were purchased from Cayman chemical. Approximately 2 µg of either COX-1 or COX-2 were added to buffer containing 100 µM AA, 0.1 M Tris-HCl buffer (pH 8.0), 5 mM EDTA, 2 mM phenol and 1 µM hematin at 37°C. Data was collected using a Hansatech DW1 oxygen electrode chamber, as described before. Inhibitor or vehicle were mixed with the respective COX in buffer within the electrode cell, the reaction was initiated by the addition of AA, followed by monitoring of rate of oxygen consumption. Ibuprofen, aspirin and indomethacin, and the carrier solvent, DMSO, were used as positive and negative controls, respectively.

Where [4] appears, read: UV-based assay, 10 µM AA, pH 7.3, crude enzyme, error = SD, read-out: 5-LOX IC50.
The mark [5] stands for this setting: 100 µM AA, pH 8.0, 37°C, oxygen consumption, read-out: COX-1 IC50.
Where [6] appears, read: UV-based assay, read-out: 5-LOX IC50.

For the compound `CC(C)(C)OC(=O)N1CCN(c2ccc(NCc3ccc(-c4ccc(C#N)cc4)o3)cc2)CC1` [Compound 1], the IC50 in assay [1] (setting [4]) is 0.17 µM; in assay [2] it was over 150 µM; in assay [3] (setting [5]), over 50 µM.
Regarding `CC(=O)N1CCN(c2ccc(NCc3ccc(-c4cccc(Cl)c4)o3)cc2)CC1` [Compound 13], in assay [1] (D2O buffer vs H2O), the “increase in 5-LOX IC50 in D2O relative to H2O (solvent isotope effect)” value turned out to be 2.4 fold. The 50% inhibitory concentration (IC50) in assay [1] (setting [4]) was 0.52 µM; in assay [2] it was over 50 µM; in assay [3] (setting [5]), over 150 µM.
Regarding `N#Cc1ccc(-c2ccc(CNc3ccc(N4CCCCC4)cc3)o2)cc1` [Compound 14], the IC50 in assay [1] (setting [4]) was 0.33 µM; in assay [2], 10 µM; in assay [3] (setting [5]) it was over 150 µM.
With `CC(=O)N1CCN(c2ccc(NCC3COC(Cn4ccnc4)(c4ccc(Cl)cc4Cl)O3)cc2)CC1` (stereo not shown) [ketaminazole (16), ketaminazole], the “selectivity for 5-LOX over 12-LOX, 15-LOX-1, 15-LOX-2, COX-1 and COX-2” value in assay [1] is reported as “over 100 times”. In addition, the IC50 was 0.7 µM in assay [1] (setting [4]), 0.7 µM in assay [1] (setting [6]), over 150 µM in assay [2] and over 150 µM in assay [3] (setting [5]).
With `Cc1cc(C2CCCCC2)n(O)c(=O)c1` [ciclopirox, reference compound], the IC50 in assay [1] (setting [4]) was 11 ± 1 µM; in assay [3] (setting [5]), over 50 µM.
On to `CC(=O)N1CCN(c2ccc(OCC3COC(Cn4ccnc4)(c4ccc(Cl)cc4Cl)O3)cc2)CC1` (stereo not shown) [ketoconazole, reference compound], for which the values for the IC50 in assay [1], in assay [2] and in assay [3] were over 50 µM, over 150 µM and over 50 µM, respectively.
On to `CC[C@](O)(c1nnc(NCc2ccc3c(-c4ccc(F)cc4)cc(=O)oc3c2)o1)C(F)(F)F` [setileuton, reference compound], for which the IC50 in assay [1] (setting [6]) is 0.06 ± 0.006 µM; in assay [2], over 150 µM.
